Patent publication US20220249535A1, “COMPOSITIONS COMPRISING NICOTINAMIDE ADENINE DINUCLEOTIDE-RELATED COMPOUNDS AND USE THEREOF” (Rejuvenation Therapeutics, priority 2019, published 2022)

Columns and labels:
NAD+ levels in the blood = assay: Blood NAD+ level in subjects during daily oral dosing (Example 1); type: in vivo, human
Procedure: Study Design • In this study, safety, pharmacokinetics, and pharmacodynamics of NAM, NA, NMN, and NR were studied. Before receiving the first oral dose of NAM, NA, NMN, and NR formulated as a dietary supplement, but after screening and informed consent, eligible subjects underwent blood and urine samplings on Day 1 to establish baseline levels of NAD+ and other compounds. Subsequently, each subject received one of the following dosages: • 1. daily doses of 1000 mg NR for 7 days: • 2. daily doses of NR 300 mg for 14 days and then added NAM 1000 mg for 7 days; • 3. daily doses of 300 mg NR for 7 days; • 4. daily doses of 1000 mg NAD+ for 7 days; • 5. daily doses of 1000 mg NAM for 14 days: • 6. daily doses of 300 mg NA for 14 days: • 7. daily doses of 1000 mg NMN for 7 days: • 8. daily doses of NAM, NA, NMN, and NR, one at a time, including 300 mg NA and 300 mg NR for 11 days followed by 300 mg NA, 300 mg NR, and 1000 mg NAM for 11 days; • 9. daily doses of 300 mg NR and 1000 mg NAM for 9 days; • 10. daily doses of NAM, NA, and NR, one at a time, including 300 mg NA and 300 mg NR for 11 days followed by 300 mg NA, 300 mg NR, and 1000 mg NAM for 11 days. • Each subject underwent serial blood and urine sampling during the daily dosing of NAM, NA, NMN, and NR, or a mixture of the foregoing.
Inclusion Criteria: • 1. Healthy male or female, age>18 years. • 2. Signed, informed consent. • 3. […] Healthy as determined by laboratory results and medical history. • 5. Agrees to maintain current level of physical activity throughout the study. • 6. Agrees to avoid study compounds for 30 days prior to enrollment and during the study 7. • 7. Agrees to avoid nutritional yeast, whey proteins, energy drinks, pomegranate, pomegranate juice, grapefruit, grapefruit juice and alcohol 7 days prior to enrollment and during study • 8. Willingness and ability to comply with scheduled visits, cell phone calls, treatment plans, laboratory tests, and completion of other study procedures as specified in the protocol.
Exclusion Criteria: • 1. Women who were pregnant, breastfeeding, or planning to became pregnant during the course of the trial. • 2. Subjects who were smokers • 3. Unstable medical conditions as determined by the Investigator • 4. Immunocompromised individuals such as subjects that had undergone organ transplantation or subjects diagnosed with human immunodeficiency virus (HIV) • 5. Clinically significant abnormal lab results at screening (e.g., AST, ALT or ALP>2×ULN, and/or bilirubin>1×ULN) • 6. Subjects who had planned surgery during the course of the trial • 7. History of or current diagnosis of any cancer (except for successfully treated basal cell carcinoma) diagnosed less than 5 years prior to screening. Subjects with cancer in full remission more than 5 years after diagnosis were acceptable • 8. History of blood/bleeding disorders • 9. Blood donation in the past 2 months • 10. Alcohol abuse (>2 standard alcoholic drinks per day) or drug abuse within the past 6 months • 11. Participation in a clinical research trial within 30 days prior to randomization • 12. Allergy or sensitivity to study supplement ingredients provided during the study • 13. Individuals who were cognitively impaired and/or who were unable to give informed consent. • 14. Any other condition which in the Investigator's opinion may adversely affect the subject's ability to complete the study or its measures or which may pose significant risk to the subject
Clinical Data and Sample Collections • 1. Height, weight, temperature, BP, heart rate, demographics • 2. Physical examination • 3. Medical history, concomitant dietary supplements (if any) and concomitant medications (if any) • 4.

[1] = after NMN supplementation; through the liver and bloodstream intact into muscle; cited from earlier work
[2] = compared with NAM; cited from earlier work
[3] = murine plasma or fetal-bovine-serum containing culture medium; cited from earlier work

Row | Compound | NAD+ level in response to intake (NAD+ levels in the blood; 300 mg daily for 14 days) | NAD+ level in response to intake (NAD+ levels in the blood; 1000 mg daily for 7 days) | also measured
1 | O=C(O)c1cccnc1 [NA, nicotinic acid] | increasing NAD+ levels |  | 
2 | NC(=O)c1cccnc1 [NAM, nicotinamide] |  |  | NAD+ level in response to intake (NAD+ levels in the blood; 1000 mg daily for 14 days): increasing NAD+ levels
3 | NC(=O)c1ccc[n+]([C@@H]2O[C@H](COP(=O)([O-])O)[C@@H](O)[C@H]2O)c1 [NMN, nicotinamide mononucleotide] |  | increasing NAD+ levels | Time to metabolism to NAD+ [1]: ≤ 30 min; Retention in the body [2]: retained in the body for longer than NAM
4 | NC(=O)c1ccc[n+]([C@@H]2O[C@H](CO)[C@@H](O)[C@H]2O)c1 [NR, nicotinamide riboside] | increasing NAD+ level | increasing NAD+ levels | Stability [3]: can quickly degrade into NAM
5 | Nicotinamide adenine dinucleotide [NAD+] |  | increasing NAD+ level | NAD+ level in response to intake (NAD+ levels in the blood; 1000 mg daily for 7 days, listed as NAD): increasing NAD+ levels
